# Experimental data: patent US4180672A, “2-Organothio-2-cyclopentenones, organothio-cyclopentanes derived therefrom” (Teijin Limited, priority 1976, dated 1979)
# Read-outs that look alike come from different tables or passages of the source.
# Assays:
# [1] = tested on: formation of ulcer in rats induced by indomethacin; test: inhibiting action on formation of ulcer in rats induced by indomethacin (peroral); format: in vivo, rats (Sprague Dawley); conditions: for Ulcer formation (ulcer coefficient) Average value ± S.E.M.: 7 rats
# Experimental: By the method of Y. H. Lee et al. [Arch. Int. Pharmacodyn. Ther., 192, 370 (1971)], the inhibiting action of dl-11-deoxy-15-methyl-7-thia-PGE1 methyl ester (a compound of formula II) on the formation of ulcer in rats induced by indomethacin, a typical non-steroid anti-inflammatory agent, was evaluated.
# Male rats (Sprague Dawley species; body weight 300 g) were used in the experiment. These rats had been caused to fast for 24 hours in separate cages before the initiation of the experiment. Indomethacin was orally administered to these rats, and 6 hours later, they were killed. Formation of ulcer in the fundus part was examined by measuring the area of the ulcer-forming part under microscope. The dl-11-deoxy-15-methyl-7-thia-PGE1 methyl ester was orally administered at the end of 30 minutes and 3 hours, respectively, after the administration of indomethacin. The ulcer formation inhibiting rate of the dl-11-deoxy-15-methyl-7-thia-PGE1 methyl ester against a predetermined dose of indomethacin was determined.
# The indomethacin was administered as a 0.5 ml aqueous suspension (containing two drops of a Tween-type nonionic surfactant per 14 ml of water). The dl-11-deoxy-15-methyl-7-thia-PGE1 methyl ester was given in the form of a solution in a phosphate buffer containing 0.9% of sodium chloride.
# In the same way as in Referential Example 1, the compounds shown in Table 2 were examined for their inhibiting action on ulcer formation.
# [2] = acute toxicity (iv) in mice; conditions: mouse, in vivo
SMILES,"Inhibiting rate (ulcer formation) ([1]; dose 0.4 mg/kg, po)","Inhibiting rate (ulcer formation) ([1]; dose 1.0 mg/kg, po)","Inhibiting rate (ulcer formation) ([1]; dose 2.0 mg/kg, po)",other results
"CCCCCC(C)(O)/C=C/C1CCC(=O)C1SCCCCCC(=O)OC (racemic) [No. 101, dl-11-deoxy-15-methyl-7-thia-PGE1 methyl ester]",66%,99%,,"ED50 ([1]; Rattus norvegicus, po, peroral, indomethacin 20 mg/kg peroral, rats, read-out: ED50 (inhibition of ulcer formation induced by indomethacin)): 0.3 mg/kg; Inhibiting rate (ulcer formation) ([1]; dose 0.1 mg/kg, po): 16%; Ulcer formation (ulcer coefficient) Average value ± S.E.M. ([1]; dose 0.1 mg/kg, po, indomethacin 20 mg/kg peroral): 57.5 ± 14.1; Ulcer formation (ulcer coefficient) Average value ± S.E.M. ([1]; dose 0.4 mg/kg, po, indomethacin 20 mg/kg peroral, *** p 0.001): 23.3 ± 12.4; Ulcer formation (ulcer coefficient) Average value ± S.E.M. ([1]; dose 1.0 mg/kg, po, indomethacin 20 mg/kg peroral, *** p 0.001): 0.6 ± 0.05; inhibition of ulcer formation (in words) ([1]; rats, indomethacin-induced, peroral): markedly inhibited ulcer formation"
"CCCCC[C@H](O)/C=C/[C@@H]1CCC(=O)[C@H]1SCCCCCC(=O)OC [No. 89, 11-Deoxy-7-thia-8,12-diepiprostaglandin E1 methyl ester]",57%,65%,,LD50 ([2]; iv): 20 mg/kg
"CCCCCC(C)(O)CS[C@H]1C(=O)CC[C@@H]1SCCCCCC(=O)O (some centres unmarked) [No. 154, 7,13-dithia-15-hydroxy-15-methyl-11-oxo-prostanoic acid]",,,80%,"LD50 ([2]; acute toxicity (iv) in mice, read-out: LD50): 350 mg/kg"
"CCCCCCCS[C@H]1C(O)CC[C@@H]1SCCCCCC(=O)OC (some centres unmarked) [No. 159, methyl 7,13-dithia-11-hydroxyprostanoate]",15%,,78%,
"CCCCCCCS[C@H]1CCC(O)[C@@H]1SCCCCCC(=O)OC (some centres unmarked) [No. 171, methyl 7,13-dithia-9-hydroxyprostanoate]",12%,,,"Inhibiting rate (ulcer formation) ([1]; dose 5.0 mg/kg, po): 75%"
"CCCCCC(C)(O)CS[C@H]1CCC(O)[C@@H]1SCCCCCC(=O)OC (some centres unmarked) [No. 182, methyl 7,13-dithia-9,15-dihydroxy-15-methylprostanoate]",25%,,80%,
"COC(=O)CCCCCSC1CCC(O)C1SCCCc1ccccc1 (centres unmarked) [No. 190, methyl 7,13-dithia-11-hydroxy-16-phenyl-17,18,19,20-tetranor-prostanoate]",46%,57%,,
"CCCCC[C@H](O)/C=C/[C@@H]1[C@@H](C/C=C\CCCC(=O)O)[C@@H](O)C[C@H]1O [PGF2α, reference compound]",,,,"LD50 ([2]; iv, female, iv, mice, read-out: acute toxicity LD50): 56 mg/kg; LD50 ([2]; male, iv, mice, read-out: acute toxicity LD50): 60 mg/kg"
